CC1(C)S[C@@H]2[C@H](NC(=O)[C@H](NC(=O)N3CCNC3=O)c3ccccc3)C(=O)N2[C@H]1C(=O)O
solubility (mole fraction)
Conditions	278.15 K	283.15 K	288.15 K	293.15 K	298.15 K	303.15 K	308.15 K	313.15 K	318.15 K	323.15 K
in THF	0.00106	0.00115	0.00131	0.00149	0.00164	0.00178	0.00199	0.00218	0.00243	0.00276
in acetone	0.000492	0.000572	0.000667	0.000823	0.000919	0.00112	0.00133	0.00155	0.00192	0.00223
in acetonitrile	0.000491	0.000551	0.000643	0.000757	0.000836	0.000934	0.00108	0.00122	0.00137	0.00156
in ethanol	0.000687	0.000805	0.000954	0.00113	0.00131	0.00165	0.00197	0.00245	0.00296	0.00368
in ethyl acetate	0.000219	0.000243	0.000287	0.000311	0.000353	0.000411	0.000462	0.000528	0.000613	0.000688
in isopropanol	9.02e-05	0.000111	0.000132	0.000162	0.000196	0.00024	0.000289	0.000376	0.000456	0.000557
in isopropyl acetate	6.88e-05	7.89e-05	9.25e-05	0.000102	0.000116	0.00013	0.000148	0.00017	0.000192	0.000219
in methanol	0.000281	0.00033	0.000403	0.000478	0.000602	0.000728	0.000948	0.00115	0.00142	0.00178
in methyl acetate	0.00027	0.000313	0.000372	0.000463	0.000565	0.000651	0.000758	0.000921	0.00107	0.0013

From BigSolDB 2.1
